Columns and labels:
Assay type in all cases: biochemical
PAK4 = PAK4 (Homo sapiens, UniProt O96013); experiment: In vitro PAK inhibition assay (SelectScreen, Ser/Thr 20 peptide)
In short: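 FRET-based Ser/Thr 20 peptide phosphorylation: 0.1-0.75 ng PAK4, 2 μM peptide in 50 mM HEPES pH 7.5, 10 mM MgCl2, 1 mM EGTA, 0.01% BRIJ-35, 1% DMSO; 60 min at room temperature, then 60 min protease development. 10-point 3-fold titrations; IC50 from sigmoidal fit.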

PAK2 (PAK65) = PAK2 (PAK65) (Homo sapiens, UniProt Q13177); experiment: as above
Chain of PAK2 (PAK65) (Q13177 whole entry): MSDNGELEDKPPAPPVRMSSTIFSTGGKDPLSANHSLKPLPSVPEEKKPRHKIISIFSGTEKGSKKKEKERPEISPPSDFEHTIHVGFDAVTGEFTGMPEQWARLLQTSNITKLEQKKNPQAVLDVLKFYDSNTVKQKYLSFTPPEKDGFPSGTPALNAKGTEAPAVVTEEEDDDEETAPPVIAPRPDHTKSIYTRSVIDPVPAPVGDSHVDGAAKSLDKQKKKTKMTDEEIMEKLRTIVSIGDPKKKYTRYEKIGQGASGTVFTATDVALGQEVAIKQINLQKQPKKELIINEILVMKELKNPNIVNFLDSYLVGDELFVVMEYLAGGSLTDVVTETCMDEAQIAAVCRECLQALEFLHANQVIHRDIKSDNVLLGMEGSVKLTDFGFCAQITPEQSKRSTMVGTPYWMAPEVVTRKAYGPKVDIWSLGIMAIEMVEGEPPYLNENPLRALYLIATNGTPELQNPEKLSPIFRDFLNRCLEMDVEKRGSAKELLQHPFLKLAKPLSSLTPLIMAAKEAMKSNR
In short: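 FRET-based peptide cleavage assay: 0.29-6 ng PAK2 and 2 μM Ser/Thr 20 peptide in 50 mM HEPES pH 7.5, 10 mM MgCl2, 1 mM EGTA, 0.01% BRIJ-35, 1% DMSO final. Kinase reaction 60 min at room temperature, then 60 min development; 10-point 3-fold titrations, percent phosphorylation from fluorescence.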

PAK1 = PAK1 (Homo sapiens, UniProt Q13153); experiment: In vitro PAK inhibition assay (SelectScreen, Ser/Thr 19 peptide)
Chain of PAK1 (Q13153 whole entry): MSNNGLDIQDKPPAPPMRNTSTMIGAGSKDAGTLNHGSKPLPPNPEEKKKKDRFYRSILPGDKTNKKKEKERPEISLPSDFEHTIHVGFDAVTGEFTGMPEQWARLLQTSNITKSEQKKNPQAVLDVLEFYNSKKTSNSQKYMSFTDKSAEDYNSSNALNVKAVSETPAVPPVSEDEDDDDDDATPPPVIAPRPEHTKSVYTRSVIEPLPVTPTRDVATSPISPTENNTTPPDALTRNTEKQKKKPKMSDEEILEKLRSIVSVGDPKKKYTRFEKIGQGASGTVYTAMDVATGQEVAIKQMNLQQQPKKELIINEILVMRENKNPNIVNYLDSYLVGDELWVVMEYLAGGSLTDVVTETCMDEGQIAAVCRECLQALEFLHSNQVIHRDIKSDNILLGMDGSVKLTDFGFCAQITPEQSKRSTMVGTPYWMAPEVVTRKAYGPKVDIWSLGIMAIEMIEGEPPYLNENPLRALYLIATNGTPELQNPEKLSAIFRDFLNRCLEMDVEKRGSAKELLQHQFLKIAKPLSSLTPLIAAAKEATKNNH
In short: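 Kinase reaction ran in 50 mM HEPES pH 7.5, 0.01% BRIJ-35, 10 mM MgCl2, 1 mM EGTA with Ser/Thr 19 peptide for 60 min at room temperature, followed by 60 min protease development. Fluorescence gave percent phosphorylation. Compounds were tested as 10-point, 3-fold titrations in 1% DMSO final.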

PAK3 = PAK3 (Homo sapiens, UniProt O75914); experiment: In vitro PAK inhibition assay (SelectScreen, Ser/Thr 20 peptide)
Chain of PAK3 (O75914 whole entry): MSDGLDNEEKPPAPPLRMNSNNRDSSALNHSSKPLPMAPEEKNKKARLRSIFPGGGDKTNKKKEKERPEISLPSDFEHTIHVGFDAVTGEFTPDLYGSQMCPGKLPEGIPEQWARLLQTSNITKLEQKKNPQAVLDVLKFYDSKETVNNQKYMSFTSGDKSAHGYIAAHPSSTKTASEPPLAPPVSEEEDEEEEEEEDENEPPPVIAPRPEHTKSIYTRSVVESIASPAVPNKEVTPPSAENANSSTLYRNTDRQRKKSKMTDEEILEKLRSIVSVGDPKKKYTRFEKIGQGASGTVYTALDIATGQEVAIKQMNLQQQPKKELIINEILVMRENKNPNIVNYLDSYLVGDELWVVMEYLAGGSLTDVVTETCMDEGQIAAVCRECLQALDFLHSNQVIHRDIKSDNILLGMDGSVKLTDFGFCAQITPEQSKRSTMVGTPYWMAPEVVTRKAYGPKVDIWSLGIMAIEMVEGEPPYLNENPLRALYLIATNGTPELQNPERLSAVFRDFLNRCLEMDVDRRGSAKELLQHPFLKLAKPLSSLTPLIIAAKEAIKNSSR
In short: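 PAK3 phosphorylation of Ser/Thr 20 peptide in 50 mM HEPES pH 7.5, 0.01% BRIJ-35, 10 mM MgCl2, 1 mM EGTA, 1% DMSO final; 60 min at room temperature, then 60 min development reaction with fluorescence read-out. 10-point 3-fold titrations; percent phosphorylation from 0% and 100% phosphopeptide controls.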

Chain of PAK4 (O96013 whole entry): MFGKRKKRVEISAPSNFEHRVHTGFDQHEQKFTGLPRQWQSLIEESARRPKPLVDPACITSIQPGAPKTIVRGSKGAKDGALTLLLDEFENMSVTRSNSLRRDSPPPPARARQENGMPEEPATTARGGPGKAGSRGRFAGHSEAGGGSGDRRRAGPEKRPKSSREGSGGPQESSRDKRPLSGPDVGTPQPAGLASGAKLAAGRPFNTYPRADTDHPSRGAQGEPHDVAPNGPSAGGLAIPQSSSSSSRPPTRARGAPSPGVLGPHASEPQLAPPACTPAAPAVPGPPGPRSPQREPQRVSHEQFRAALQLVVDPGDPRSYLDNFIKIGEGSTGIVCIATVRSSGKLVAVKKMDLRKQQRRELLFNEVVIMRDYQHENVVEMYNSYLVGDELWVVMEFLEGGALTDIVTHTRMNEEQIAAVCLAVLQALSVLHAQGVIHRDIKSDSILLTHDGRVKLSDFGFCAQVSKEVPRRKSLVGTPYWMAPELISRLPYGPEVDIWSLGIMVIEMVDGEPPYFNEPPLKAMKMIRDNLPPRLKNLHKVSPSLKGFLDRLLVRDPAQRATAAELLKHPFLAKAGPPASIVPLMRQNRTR

IC50 (PAK4) [nM]	IC50 (PAK2 (PAK65)) [nM]	IC50 (PAK1) [nM]	IC50 (PAK3) [nM]	Structure (SMILES)
≥ 5000	500 to 5000	> 5000	> 5000	CCn1c(=O)c(-c2ccc(-c3cn[nH]c3)cc2)cc2cnc(Nc3ccc(N4CCN(C)CC4)cc3)nc21
500 to 5000	< 50	< 50	< 50	CCn1c(=O)c(-c2ccc(-c3cncs3)cc2Cl)cc2cnc(Nc3ccc(N4CCNCC4)cc3)nc21
500 to 5000	< 50	< 50	< 50	CCn1c(=O)c(-c2ccc(-c3cccnc3)cc2Cl)cc2cnc(Nc3ccc(N4CCNCC4)c(F)c3)nc21
500 to 5000	< 50	< 50	< 50	CCn1c(=O)c(-c2ccc(-c3cncnc3)cc2Cl)cc2cnc(Nc3ccc(N4CCN(C)CC4)cc3)nc21
500 to 5000	< 50	< 50	50 to 500	CCn1c(=O)c(-c2ccc(-c3ncc(C)s3)cc2C)cc2cnc(Nc3ccc(C4CCN(C)CC4)cc3)nc21
500 to 5000	< 50	< 50	50 to 500	CCn1c(=O)c(-c2ccc(-c3cccnc3C)cc2Cl)cc2cnc(Nc3ccc(C4CCNCC4)c(F)c3)nc21
≥ 5000	< 50	< 50	< 50	Cc1ncc(-c2ccc(-c3cc4cnc(Nc5ccc(CCN(C)C)cc5)nc4n(C)c3=O)c(Cl)c2)s1
500 to 5000	< 50	< 50	< 50	CCn1c(=O)c(-c2ccc(-c3cnc(C)s3)cc2Cl)cc2cnc(Nc3ccc(C4CCNC4)cc3)nc21 (stereo not drawn)
≥ 5000	< 50	< 50	< 50	CCn1c(=O)c(-c2ccc(-c3ccoc3)cc2Cl)cc2cnc(Nc3ccc(N4CCN(C)CC4)cc3)nc21
≥ 5000	< 50	< 50	< 50	CCn1c(=O)c(-c2ccc(-c3ccsc3)cc2Cl)cc2cnc(Nc3ccc(N4CCN(C)CC4)cc3)nc21
500 to 5000	< 50	< 50	< 50	CCN1CCC(c2ccc(Nc3ncc4cc(-c5ccc(-c6cccnc6)cc5Cl)c(=O)n(CC)c4n3)cc2)CC1
500 to 5000	< 50	< 50	< 50	CCn1c(=O)c(-c2ccc(-c3cncnc3)cc2Cl)cc2cnc(Nc3ccc(N4CCNCC4)c(F)c3)nc21
500 to 5000	< 50	< 50	< 50	CCn1c(=O)c(-c2ccc(-c3cccnc3F)cc2Cl)cc2cnc(Nc3ccc(C4=CCN(C)CC4)cc3)nc21
50 to 500	< 50	< 50	< 50	CCn1c(=O)c(-c2ccc(-c3cccnc3)cc2Cl)cc2cnc(Nc3ccc(N4CCN(C(C)C)CC4)cc3)nc21 [drawing 655]
≥ 5000	50 to 500	< 50	50 to 500	CCn1c(=O)c(-c2ccc(-c3cccnc3C)cc2C)cc2cnc(Nc3ccc(C4CCN(C)CC4)cc3)nc21
500 to 5000	< 50	< 50	< 50	CCn1c(=O)c(-c2ccc(-c3ccc(C)nc3F)cc2Cl)cc2cnc(Nc3ccc(CCN(C)C)cc3)nc21
≥ 5000	> 5000	500 to 5000	> 5000	CCn1c(=O)c(-c2ccc(-c3noc(C)n3)cn2)cc2cnc(Nc3ccc(C4CCN(C)CC4)cc3)nc21
500 to 5000	< 50	< 50	< 50	CCn1c(=O)c(-c2ccc(-c3noc(C)n3)cc2Cl)cc2cnc(Nc3ccc(N4CCN(C(C)C)CC4)cc3)nc21

IC50 (PAK4) [nM]	IC50 (PAK2 (PAK65)) [nM]	IC50 (PAK1) [nM]	IC50 (PAK3) [nM]	Structure (SMILES)
≥ 5000	> 5000	500 to 5000	> 5000	CN1CCC(c2ccc(Nc3ncc4cc(-c5cc(-c6ccncc6)ccc5Cl)c(=O)n(C)c4n3)cc2)CC1
≥ 5000	50 to 500	50 to 500	50 to 500	CCn1c(=O)c(-c2ccc(-c3cc(NC4CC4)ncn3)cc2Cl)cc2cnc(Nc3ccc(C4CCN(C)CC4)cc3)nc21
≥ 5000	< 50	< 50	50 to 500	CCn1c(=O)c(-c2ccc(-c3ccc(C)s3)cc2Cl)cc2cnc(Nc3ccc(N4CCN(C)CC4)cc3)nc21
500 to 5000	< 50	< 50	< 50	CCn1c(=O)c(-c2ccc(-c3cnc(C)s3)cc2Cl)cc2cnc(Nc3ccc(CCN(C)C)cc3)nc21
500 to 5000	< 50	50 to 500	50 to 500	CCn1c(=O)c(-c2ccc(-c3ccc(C)nc3F)cc2Cl)cc2cnc(Nc3ccc(C4CCN(C(C)C)CC4)cc3)nc21
≥ 5000	500 to 5000	50 to 500	500 to 5000	CCn1c(=O)c(-c2ccc(C3CC3)cc2)cc2cnc(Nc3ccc(N4CCN(C)CC4)cc3)nc21
≥ 5000	> 5000	> 5000	> 5000	CCn1c(=O)c(-c2ccc(-c3cccc4ncccc34)cc2)cc2cnc(Nc3ccc(N4CCN(C)CC4)cc3)nc21
≥ 5000	< 50	< 50	< 50	CCn1c(=O)c(-c2ccc(-c3ccnc(C)c3)cc2Cl)cc2cnc(Nc3ccc(N4CCN(C)CC4)cc3)nc21
≥ 5000	50 to 500	< 50	50 to 500	CCN1CCC(c2ccc(Nc3ncc4cc(-c5ccc(-c6ccc(F)nc6C)cc5Cl)c(=O)n(CC)c4n3)cc2)CC1
≥ 5000	500 to 5000	50 to 500	500 to 5000	CCn1c(=O)c(-c2ccc(-c3ccnn3C)cc2)cc2cnc(Nc3ccc(N4CCN(C)CC4)cc3)nc21
500 to 5000	< 50	< 50	< 50	CCn1c(=O)c(-c2ccc(-c3noc(C)n3)cc2Cl)cc2cnc(Nc3ccc(C4CCN(C(C)C)CC4)cc3)nc21
≥ 5000	50 to 500	50 to 500	50 to 500	CCn1c(=O)c(-c2ccc(-c3cccnc3C)cc2Cl)cc2cnc(Nc3ccc(CCN4CCOCC4)cc3)nc21
≥ 5000	< 50	< 50	50 to 500	CCn1c(=O)c(-c2ccc(-c3ccc(C)nc3)cc2Cl)cc2cnc(Nc3ccc(C4CCN(C)CC4)c(F)c3)nc21
≥ 5000	50 to 500	50 to 500	50 to 500	CC(=O)Nc1cc(-c2cc3cnc(Nc4ccc(CCN(C)C)cc4)nc3n(C)c2=O)c(Cl)cc1-c1cccnc1
500 to 5000	< 50	< 50	< 50	CCn1c(=O)c(-c2ccc(-c3cncnc3)cc2Cl)cc2cnc(Nc3ccc(C4CNCCO4)cc3)nc21 (stereo not drawn)
500 to 5000	< 50	< 50	50 to 500	CCn1c(=O)c(-c2ccc(-c3ccc(C)nc3F)cc2Cl)cc2cnc(Nc3ccc(C4CCN(C)CC4)cc3)nc21
≥ 5000	< 50	< 50	50 to 500	CCn1c(=O)c(-c2ccc(-c3cccnc3C)cc2Cl)cc2cnc(Nc3ccc(CCN4CCCC4)cc3)nc21
500 to 5000	< 50	< 50	< 50	CCn1c(=O)c(-c2ccc(-c3cccnc3F)cc2Cl)cc2cnc(Nc3ccc(C4CCN(C)CC4)c(F)c3)nc21
